Test results: ChEMBL document CHEMBL4420076, “Amylin and calcitonin receptor agonist” (2017)
pEC50, pIC50: −log10 of the molar value. Numbered stars: 1 amine (or outer) side, 2 acyl side, 3 side chain; on linkers, the order of the positions; unused ones are H or OH. Square brackets hold non-standard residues; d marks the D form. Peptide text beside a SMILES is read from it. * marks the point of attachment. C20 diacid = O=C(O)CCCCCCCCCCCCCCCCCCC(=O)*; C16 diacid = O=C(O)CCCCCCCCCCCCCCC(=O)*; γGlu = O=C(O)[C@H](CCC(=O)[*:2])N[*:1]; AEEA = NCCOCCOCC(=O)O

Tests used:
Rattus norvegicus [1] = assay: Reduction in food intake in Sprague-Dawley rat at 3 nmol/kg measured 0 to 24 hrs post dose relative to control; type: functional; parameters: scale not given: the % may be the effect or the level left
Rattus norvegicus [2] = assay: Reduction in food intake in Sprague-Dawley rat at 3 nmol/kg measured 24 to 48 hrs post dose relative to control; type: functional; parameters: scale not given: the % may be the effect or the level left
Calcitonin receptor [3] = biological target: T1, Calcitonin receptor (Homo sapiens, UniProt P30988); assay: Agonist activity at human calcitonin receptor expressed in BHK570 cells assessed as increase in intracellular cAMP concentration incubated for 3 hrs in absence of albumin by CRE luciferase reporter gene assay; type: functional, cell-based
T1 sequence (P30988 whole entry): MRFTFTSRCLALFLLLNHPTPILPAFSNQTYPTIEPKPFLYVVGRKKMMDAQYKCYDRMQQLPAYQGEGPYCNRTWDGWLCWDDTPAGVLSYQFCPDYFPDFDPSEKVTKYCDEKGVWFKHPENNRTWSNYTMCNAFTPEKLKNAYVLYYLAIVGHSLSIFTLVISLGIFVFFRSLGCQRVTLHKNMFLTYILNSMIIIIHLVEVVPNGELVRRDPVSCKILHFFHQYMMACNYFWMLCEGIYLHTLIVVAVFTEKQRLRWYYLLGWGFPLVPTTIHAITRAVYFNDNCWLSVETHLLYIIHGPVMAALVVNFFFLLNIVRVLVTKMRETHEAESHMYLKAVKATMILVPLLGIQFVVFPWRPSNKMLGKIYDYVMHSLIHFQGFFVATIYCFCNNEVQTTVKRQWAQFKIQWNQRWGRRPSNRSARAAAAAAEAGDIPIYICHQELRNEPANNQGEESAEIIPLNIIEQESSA

[4] = biological target: T2, Amylin receptor AMY3; CALCR/RAMP3 (Homo sapiens, UniProt O60896+P30988); assay: Agonist activity at human amylin receptor expressed in BHK570 cells co-expressing RAMP3 assessed as increase in intracellular cAMP concentration incubated for 3 hrs in presence of 10% FBS by CRE luciferase reporter gene assay; type: functional, cell-based
T2 sequence (P30988 whole entry): T1 sequence (P30988 whole entry)
T2 sequence (O60896 whole entry): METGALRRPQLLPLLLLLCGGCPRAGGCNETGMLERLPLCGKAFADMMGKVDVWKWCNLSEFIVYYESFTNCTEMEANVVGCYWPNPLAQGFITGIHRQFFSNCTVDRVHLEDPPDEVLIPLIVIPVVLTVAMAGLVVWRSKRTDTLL

Calcitonin receptor [5] = biological target: T1, Calcitonin receptor; assay: Agonist activity at human calcitonin receptor expressed in BHK570 cells assessed as increase in intracellular cAMP concentration incubated for 3 hrs in presence of 10% FBS by CRE luciferase reporter gene assay; type: functional, cell-based
[6] = Stability in pH 7.5 buffer assessed as lag time for fibril formation at 1 uM by Thioflavin T based fluorescence assay; type: physicochemical; conditions: pH 7.5, 1 µM
[7] = Stability in pH 7.5 buffer assessed as compound recovery at 1 uM by Thioflavin T based fluorescence assay; type: physicochemical; conditions: read-out: Drug recovery
[8] = Solubility in 100 mM glycylglycine buffer at pH 3.0 incubated for 18 hrs by UPLC analysis; type: physicochemical
[9] = Solubility in 100 mM glycylglycine buffer at pH 4.0 incubated for 18 hrs by UPLC analysis; type: physicochemical
[10] = Solubility in 100 mM bistrispropane buffer at pH 6.0 incubated for 18 hrs by UPLC analysis; type: physicochemical
[11] = Solubility in 100 mM bistrispropane buffer at pH 6.5 incubated for 18 hrs by UPLC analysis; type: physicochemical
[12] = Solubility in 100 mM bistrispropane buffer at pH 7.0 incubated for 18 hrs by UPLC analysis; type: physicochemical
[13] = Solubility in 100 mM bistrispropane buffer at pH 7.5 incubated for 18 hrs by UPLC analysis; type: physicochemical
[14] = Solubility in 100 mM bistrispropane buffer at pH 8.0 incubated for 18 hrs by UPLC analysis; type: physicochemical
[15] = biological target: T2, Amylin receptor AMY3; CALCR/RAMP3; assay: Displacement of [125I]-labeled rat amylin from human amylin receptor expressed in BHK570 cell membranes co-expressing RAMP3 incubated for 120 mins by scintillation proximity assay
[16] = biological target: T3, Amylin receptor AMY3; CALCR/RAMP3 (Rattus norvegicus, UniProt P32214+Q9JJ73); assay: Displacement of [125I]-labeled rat amylin from rat amylin receptor expressed in BHK tkts13 cell membranes co-expressing RAMP3 incubated for 120 mins by scintillation proximity assay
T3 sequence (P32214 whole entry): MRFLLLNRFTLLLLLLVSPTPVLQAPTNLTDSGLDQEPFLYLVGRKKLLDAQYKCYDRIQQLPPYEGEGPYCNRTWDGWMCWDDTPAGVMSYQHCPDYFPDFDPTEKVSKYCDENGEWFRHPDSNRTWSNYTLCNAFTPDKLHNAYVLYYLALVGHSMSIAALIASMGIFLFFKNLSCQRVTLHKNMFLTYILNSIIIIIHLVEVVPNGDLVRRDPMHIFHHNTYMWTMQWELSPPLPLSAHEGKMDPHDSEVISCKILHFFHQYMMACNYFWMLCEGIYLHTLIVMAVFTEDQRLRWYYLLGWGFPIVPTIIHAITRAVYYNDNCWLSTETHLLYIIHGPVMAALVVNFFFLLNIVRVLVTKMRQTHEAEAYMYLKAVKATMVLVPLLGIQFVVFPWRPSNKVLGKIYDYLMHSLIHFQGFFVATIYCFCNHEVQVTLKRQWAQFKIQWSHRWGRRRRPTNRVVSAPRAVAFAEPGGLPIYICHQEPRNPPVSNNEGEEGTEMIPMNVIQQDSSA
T3 sequence (Q9JJ73 whole entry): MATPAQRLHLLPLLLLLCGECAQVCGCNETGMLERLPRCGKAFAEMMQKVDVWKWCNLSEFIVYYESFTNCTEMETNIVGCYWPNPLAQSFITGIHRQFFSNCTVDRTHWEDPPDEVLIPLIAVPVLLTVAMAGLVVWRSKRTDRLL

[17] = biological target: T2, Amylin receptor AMY3; CALCR/RAMP3; assay: Agonist activity at human amylin receptor expressed in BHK570 cells co-expressing RAMP3 assessed as increase in intracellular cAMP concentration incubated for 3 hrs in absence of albumin by CRE luciferase reporter gene assay; type: functional, cell-based
[18] = Solubility in 100 mM glycylglycine buffer at pH 5.0 incubated for 18 hrs by UPLC analysis; type: physicochemical
Calcitonin receptor [19] = biological target: T1, Calcitonin receptor; assay: Displacement of [125I]-labeled human calcitonin from human calcitonin receptor expressed in BHK tkts13 cell membranes incubated for 1 hr by scintillation proximity assay

Row | Structure (SMILES) | Activity (Rattus norvegicus [1]) [%] | Activity (Rattus norvegicus [2]) [%] | pEC50 (Calcitonin receptor [3]) | pEC50 [4] | pEC50 (Calcitonin receptor [5]) | Time [6] [h] | remaining at 1 µM [7] [%] | solubility at 18 h [8] [µM] | solubility at 18 h [9] [µM] | solubility at 18 h [10] [µM] | solubility at 18 h [11] [µM] | solubility at 18 h [12] [µM] | solubility at 18 h [13] [µM] | solubility at 18 h [14] [µM] | pIC50 [15] | pIC50 [16] | pEC50 [17] | solubility at 18 h [18] [µM] | pIC50 (Calcitonin receptor [19])
1 | CC(C)C[C@H](NC(=O)CNC(=O)[C@H](CO)NC(=O)[C@H](C)NC(=O)COCCOCCNC(=O)COCCOCCNC(=O)CC[C@H](NC(=O)CCCCCCCCCCCCCCCCCCC(=O)O)C(=O)O)C(=O)N[C@@H](CO)C(=O)N[C@H](C(=O)N[C@@H](C)C(=O)N[C@H](C(=O)N[C@@H](CC(C)C)C(=O)NCC(=O)N[C@@H](CCCNC(=N)N)C(=O)N[C@@H](CC(C)C)C(=O)N[C@@H](CO)C(=O)N[C@@H](CCC(N)=O)C(=O)N[C@@H](CCC(=O)O)C(=O)N[C@@H](CC(C)C)C(=O)N[C@@H](Cc1cnc[nH]1)C(=O)N[C@@H](CCC(=O)O)C(=O)N[C@@H](CC(C)C)C(=O)N[C@@H](CCC(N)=O)C(=O)N[C@H](C(=O)N[C@@H](Cc1ccc(O)cc1)C(=O)N1CCC[C@H]1C(=O)N[C@@H](CCCNC(=N)N)C(=O)N[C@H](C(=O)N[C@@H](CCC(=O)O)C(=O)N[C@H](C(=O)NCC(=O)N[C@@H](CO)C(=O)NCC(=O)N[C@H](C(=O)N[C@@H](Cc1ccc(O)cc1)C(N)=O)[C@@H](C)O)[C@@H](C)O)[C@@H](C)O)[C@@H](C)O)C(C)C)[C@@H](C)O | 22 | 19 | 10.28 | 9.91 | 10.17 | > 45 | 100 | ≥ 200 | ≥ 200 | ≥ 200 | ≥ 200 | ≥ 200 | ≥ 200 | ≥ 200 | 9.78 | 10.54 |  |  | 
2 | CC(C)C[C@H](NC(=O)[C@H](C)NC(=O)[C@H](C)NC(=O)[C@@H](NC(=O)[C@H](CO)NC(=O)[C@H](CC(C)C)NC(=O)[C@H](CCC(=O)O)NC(=O)[C@H](CO)NC(=O)[C@H](C)NC(=O)CCCCCCCCCCCCCCC(=O)O)[C@@H](C)O)C(=O)NCC(=O)N[C@@H](CCCNC(=N)N)C(=O)N[C@@H](CC(C)C)C(=O)N[C@@H](CO)C(=O)N[C@@H](C)C(=O)N[C@@H](CCC(=O)O)C(=O)N[C@@H](CC(C)C)C(=O)N[C@@H](Cc1cnc[nH]1)C(=O)N[C@@H](CCC(=O)O)C(=O)N[C@@H](CC(C)C)C(=O)N[C@@H](C)C(=O)N[C@H](C(=O)N[C@@H](CC(C)C)C(=O)N1CCC[C@H]1C(=O)N[C@@H](CCCNC(=N)N)C(=O)N[C@H](C(=O)N[C@@H](CCC(=O)O)C(=O)N[C@H](C(=O)NCC(=O)N[C@@H](CO)C(=O)NCC(=O)N[C@@H](CO)C(=O)N1CCC[C@H]1C(N)=O)[C@@H](C)O)[C@@H](C)O)[C@@H](C)O ({C16 diacid}-ASELSTAALGRLSAELHELATLPRTETGSGSP-NH2) | 28 | -2 |  | 11.40 | 11.52 |  |  | ≥ 200 | ≥ 200 | ≥ 200 | ≥ 200 | ≥ 200 | ≥ 200 | ≥ 200 | 10.82 | 10.19 | 11.00 | ≥ 200 | 
3 | CC(C)C[C@H](NC(=O)[C@H](C)NC(=O)[C@H](C)NC(=O)[C@@H](NC(=O)[C@H](CO)NC(=O)[C@H](CC(C)C)NC(=O)[C@H](CCC(=O)O)NC(=O)[C@H](CO)NC(=O)[C@H](C)NC(=O)COCCOCCNC(=O)COCCOCCNC(=O)CC[C@H](NC(=O)CCCCCCCCCCCCCCCCCCC(=O)O)C(=O)O)[C@@H](C)O)C(=O)NCC(=O)N[C@@H](CCCNC(=N)N)C(=O)N[C@@H](CC(C)C)C(=O)N[C@@H](CO)C(=O)N[C@@H](C)C(=O)N[C@@H](CCC(=O)O)C(=O)N[C@@H](CC(C)C)C(=O)N[C@@H](Cc1cnc[nH]1)C(=O)N[C@@H](CCC(=O)O)C(=O)N[C@@H](CC(C)C)C(=O)N[C@@H](C)C(=O)N[C@H](C(=O)N[C@@H](CC(C)C)C(=O)N1CCC[C@H]1C(=O)N[C@@H](CCCNC(=N)N)C(=O)N[C@H](C(=O)N[C@@H](CCC(=O)O)C(=O)N[C@H](C(=O)NCC(=O)N[C@@H](CO)C(=O)NCC(=O)N[C@@H](CO)C(=O)N1CCC[C@H]1C(N)=O)[C@@H](C)O)[C@@H](C)O)[C@@H](C)O ({C20 diacid-γGlu-AEEA-AEEA}-ASELSTAALGRLSAELHELATLPRTETGSGSP-NH2) |  |  | 10.92 | 10.17 | 10.46 | > 45 | 100 | ≥ 200 | ≥ 200 | ≥ 200 | ≥ 200 | ≥ 200 | ≥ 200 | ≥ 200 | 9.80 |  | 10.77 | ≥ 200 | 10.30
4 | CC(C)C[C@H](NC(=O)[C@H](C)NC(=O)[C@H](C)NC(=O)[C@@H](NC(=O)[C@H](CO)NC(=O)[C@H](CC(C)C)NC(=O)[C@H](CCC(=O)O)NC(=O)[C@H](CO)NC(=O)[C@H](C)NC(=O)CC[C@H](NC(=O)CCCCCCCCCCCCCCCCCCC(=O)O)C(=O)O)[C@@H](C)O)C(=O)NCC(=O)N[C@@H](CCCNC(=N)N)C(=O)N[C@@H](CC(C)C)C(=O)N[C@@H](CO)C(=O)N[C@H](CCC(=O)O)C(=O)N[C@@H](CCC(=O)O)C(=O)N[C@@H](CC(C)C)C(=O)N[C@@H](Cc1cnc[nH]1)C(=O)N[C@@H](CCC(=O)O)C(=O)N[C@@H](CC(C)C)C(=O)N[C@@H](C)C(=O)N[C@H](C(=O)N[C@@H](CC(C)C)C(=O)N1CCC[C@H]1C(=O)N[C@@H](CCCNC(=N)N)C(=O)N[C@H](C(=O)N[C@@H](CCC(=O)O)C(=O)N[C@H](C(=O)NCC(=O)N[C@@H](CO)C(=O)NCC(=O)N[C@@H](CO)C(=O)N1CCC[C@H]1C(N)=O)[C@@H](C)O)[C@@H](C)O)[C@@H](C)O ({C20 diacid-γGlu}-ASELSTAALGRLS[dE]ELHELATLPRTETGSGSP-NH2) |  |  | 10.85 | 10.03 | 10.64 |  |  | ≥ 200 | ≥ 200 | ≥ 200 | ≥ 200 | ≥ 200 | ≥ 200 | ≥ 200 | 10.54 |  | 10.70 | ≥ 200 | 10.66
